From article PMC5112673, “A novel pyruvate kinase and its application in lactic acid production under oxygen deprivation in Corynebacterium glutamicum” (BMC Biotechnology, 2016)
Read-outs that look alike come from different tables or passages of the source.

System: T1, Pyk2
T1 construct: full length, pET-28a N-terminal His-tag (removable by thrombin; tagged and cut similarly active), E. coli BL21(DE3), subunit 67,572 Da, homohexamer 430,881 Da by gel filtration
Test: coupled L-lactate dehydrogenase / NADH assay, […] nm, allosteric sigmoidal fit
Assay type: biochemical, Corynebacterium glutamicum
Details: 5 mM MnSO4, 100 mM KCl, 100 mM Tris-HCl pH 7.4, 25°C, no effector, read-out: S 0.5

| SMILES | Km (5 mM PEP) [µM] | Km (2 mM ADP) [µM] |
| --- | --- | --- |
| Nc1ncnc2c1ncn2[C@@H]1O[C@H](COP(=O)(O)OP(=O)(O)O)[C@@H](O)[C@H]1O [ADP] | 330 ± 30 | – |
| C=C(OP(=O)(O)O)C(=O)O [PEP] | – | 4580 ± 740 |
